We go through 10 compounds from patent US20240293418A1, “COMBINATION THERAPY FOR TREATING CANCER” (Epizyme, Inc., priority 2016, published 2024).

The subject of test [1] is MM1.S. The test can be described thus: 7 day pretreatment + 4-day co-treatment combination model (Cell Titer Glo). The following applies: read-out: 4-day IC50.
Excerpt: (§1) Assay plates were developed for endpoint analysis using Cell Titer Glo to measure ATP content, which was used as an indicator of cell viability. DMSO concentration was kept constant throughout the assay at less than 0.2% v/v.
(§2) Cell lines: The cell lines MI1.S and U266B1 were obtained from American Type Culture Collection (ATCC; Rockville, MD). The cell lines LP-1, L-363 were obtained from Deutsche Sammlung von Mikroorganismen and Zellkulturen (DSMZ; Braunschweig, Germany) and the cell line KMS-28BM was obtained from Japanese Collection of Research Bioresources Cell Bank (JCRB, Osaka Japan). All cells were maintained as instructed by the supplier and cultures were maintained at 37° C. in a humidified atmosphere and 5% CO2.
(§3) Loewe volumes greater than 1 denoted synergy and volumes <−1 denoted antagonism.
For test [2], the system named is LP-1. The test is described as above. The conditions noted are these: for IC50: read-out: 4-day IC50.
Excerpt: as §1, §2, §3
In test [3] the test system is MM1.S. The test can be described thus: 7-day co-treatment combination model (Cell Titer Glo). The conditions noted are these: for IC50: Homo sapiens, 168 h, read-out: 7-day IC50. (In general: Cellular ATP, detected with luciferase, serves as a proxy for viable cell number.)
Description: as §1
(§4) Cell lines: The cell lines MI1.S and U266B1 were obtained from American Type Culture Collection (ATCC; Rockville, MD). […] All cells were maintained as instructed by the supplier and cultures were maintained at 37° C. in a humidified atmosphere and 5% CO2.
as §3
Test [4] concerns U266. The test can be described thus: 7 day pretreatment + 4-day co-treatment combination model (Cell Titer Glo). The conditions noted are these: for IC50: read-out: 4-day IC50.
Excerpt: as §1, §2, §3
The subject of test [5] is RPMI-8226. The test can be described thus: 7-day co-treatment combination model (Cell Titer Glo). The conditions noted are these: second agent + tazemetostat, 7 day co-treatment.
Description: as §1, §4, §3
In test [6] the test system is L-363. The test can be described thus: 7 day pretreatment + 4-day co-treatment combination model (Cell Titer Glo). The conditions noted are these: for IC50: read-out: 4-day IC50.
Excerpt: as §1, §2, §3
The test system of test [7] is KMS-28-BM. Kind of test: 7-day co-treatment combination model (Cell Titer Glo). The following applies: for IC50: KMS-28BM, 168 h, read-out: 7-day IC50.
Description: as §1
(§5) All cells were maintained as instructed by the supplier and cultures were maintained at 37° C. in a humidified atmosphere and 5% CO2.
as §3
Test [8] deals with KMS-28-BM. Kind of test: 7 day pretreatment + 4-day co-treatment combination model (Cell Titer Glo). The following applies: for IC50: read-out: 4-day IC50.
Description: as §1, §5, §3
The test system of test [9] is Jeko-1. Kind of test: mantle cell lymphoma 7 day co-treatment model. It counts as cell-based. The conditions noted are these: for Best CI / Bliss Volume / HSA Volume / Loewe Volume / Synergy Score: second agent + tazemetostat, 7 day co-treatment; for IC50: second agent alone, 7 day co-treatment model.
Test [10] concerns Jeko-1. The test can be described thus: mantle cell lymphoma 7 day pretreatment + 4-day co-treatment model (Cell Titer Glo). The following applies: for IC50: Homo sapiens, JeKo-1, 96 h, read-out: Second agent IC50; for Bliss Volume / HSA Volume / Loewe Volume / Synergy Score: second agent + tazemetostat, 7 day pretreatment + 4-day co-treatment, Jeko-1.
Excerpt: (§6) Cells were then co-treated in triplicate with a second compound, 3-fold serially diluted for additional 4 days. After this time, plates were developed for endpoint analysis using Cell Titer Glo to measure ATP content, which is used as an indicator of cell viability.
(§7) A Loewe volume greater than 1 denoted synergy. A Loewe volume between −1 and 1 denoted additivity, and a negative Loewe volume of less than −1, denoted antagonism.
Test [11] has as its system Granta-519. The description is as above.
Excerpt: as §6, §7
The test system of test [12] is Maver-1. The description is as above.
Excerpt: as §6, §7
In test [13] the test system is Granta-519. Kind of test: mantle cell lymphoma 7 day co-treatment model. The class given is cell-based. The conditions noted are these: for IC50: Homo sapiens, 168 h, second agent alone, 7 day co-treatment model; for Best CI / Bliss Volume / HSA Volume / Loewe Volume / Synergy Score: second agent + tazemetostat, 7 day co-treatment.
For test [14], the system named is MOLP-8. The test can be described thus: 7 day pretreatment + 4-day co-treatment combination model (Cell Titer Glo). The following applies: second agent + tazemetostat, MOLP-8 t(11;14).
Description: as §1, §5, §3
The test system of test [15] is MOLP-8. Kind of test: 7-day co-treatment combination model (Cell Titer Glo). The conditions noted are these: second agent + tazemetostat; for combinatorial effect by Loewe volumes: 7-day co-treatment, MOLP-8 t(11;14).
Description: as §1, §5, §3
For test [16], the system named is LP-1. The description is as above. The following applies: second agent + tazemetostat; 7-day co-treatment; LP-1 t(4;14).
Description: as §1, §5, §3
The test system of test [17] is Ikaros, Aiolos, IRF4 expression in RPMI-8226 cells. The test can be described thus: western blot of Ikaros, Aiolos, IRF4 in RPMI-8226 cells. It counts as cell-based. The conditions noted are these: single agent 31, 125 or 500 nM, 3 days. In general terms: A western blot detects proteins with antibodies after separation by electrophoresis.
Where [18] appears, read: second agent + tazemetostat, 7 day pretreatment + 4-day co-treatment, Granta-519.
Where [19] appears, read: second agent + tazemetostat, 7 day pretreatment + 4-day co-treatment, Maver-1.
The mark [20] stands for this setting: second agent + tazemetostat, 7 day pretreatment + 4-day co-treatment, LP-1 t(4;14).
The mark [21] stands for this setting: second agent + tazemetostat, 7 day pretreatment + 4-day co-treatment, U266 t(11;14).
[22] abbreviates: second agent + tazemetostat, 7 day pretreatment + 4-day co-treatment, L-363 t(20;22).
[23] abbreviates: second agent + tazemetostat, 7 day pretreatment + 4-day co-treatment, KMS-28-BM t(4;14).

Read-outs that look alike come from different tables or passages of the source.

By IC50 is commonly meant the midpoint of a concentration-inhibition curve.

On to `CC(C)C[C@H](NC(=O)[C@H](Cc1ccccc1)NC(=O)c1cnccn1)B(O)O` [Bortezomib, bortezomib], for which the IC50 in [1] (Homo sapiens, MM1.S, 96 h) is 1.4 nM; in test [2] (Homo sapiens, LP-1, 96 h), 3 nM; in test [3] it was 1.92 nM; in test [4] (Homo sapiens, U-266, 96 h), 2 nM; in [6] (Homo sapiens, L-363, 96 h) it was 5 nM; in test [7], 5.22 nM. For the same compound, the IC50 in [8] (KMS-28BM, 96 h) was 3 nM. In test [5] (printed in Loewe volume column), the vbliss entry was “vbliss: 0.24”.
Regarding `Cc1nc2cccc(N)c2c(=O)n1C1CCC(=O)NC1=O` (stereo not shown) [CC-122], the Loewe volume in test [3] (second agent + tazemetostat, 7 day co-treatment) turned out to be 1.93; in test [5], 2.29.
In the case of `CO[C@H]1C[C@@H]2CC[C@@H](C)[C@@](O)(O2)C(=O)C(=O)N2CCCC[C@H]2C(=O)O[C@H]([C@H](C)C[C@@H]2CC[C@@H](OCCO)[C@H](OC)C2)CC(=O)[C@H](C)/C=C(\C)[C@@H](O)[C@@H](OC)C(=O)[C@H](C)C[C@H](C)/C=C/C=C/C=C/1C` [Everolimus, everolimus], in [9], the “Best CI” value was 1.0, the “Bliss Volume” value was −0.060, the “HSA Volume” value was determined as 0.084 and the “Loewe Volume” value is listed as 0.56. For the same compound, in [9], the “Synergy Score” value is 0.4 and the IC50 stood at 0.5 nM. In test [10], the half-inhibitory concentration (IC50) stood at 0.7 nM, the “Bliss Volume” value is 1.42, the “HSA Volume” value was determined as 4.62 and the “Loewe Volume” value was 3.95. Moreover, in [10], the “Synergy Score” value came to 4.03. Moreover, in test [11] (setting [18]), the Loewe volume is 5.1. In [12] (setting [19]), the Loewe volume amounted to 6.5.
On to `C=CC(=O)N1CCC[C@@H](n2nc(-c3ccc(Oc4ccccc4)cc3)c3c(N)ncnc32)C1` [Ibrutinib, ibrutinib], for which, in [13], the IC50 was 856 nM, the “Best CI” value was 0.38, the “Bliss Volume” value turned out to be 0.894 and the “HSA Volume” value is on record as 3.86. Also, in test [13], the “Loewe Volume” value is listed as 4.16 and the “Synergy Score” value came out at 2.26. In addition, in test [11] (setting [18]), the Loewe volume worked out at 5.8. The IC50 in test [12] (Homo sapiens, Maver1, read-out: Second agent IC50) was above 3300 nM. Besides, in test [12] (setting [19]), the “Best CI” value is 0.08, the “Bliss Volume” value was determined as 0.804, the “HSA Volume” value is reported as 3.90 and the “Loewe Volume” value came out at 3.76. In test [12] (setting [19]), the Loewe volume was determined as 3.8 and the “Synergy Score” value came out at 2.33.
For the compound `CC(C)C[C@H](NC(=O)CNC(=O)c1cc(Cl)ccc1Cl)B(O)O` [Ixazomib, ixazomib], the IC50 in [1] (single agent, MM1.S t(14; 16)) amounted to 12 nM; in test [2] (single agent, LP-1 t(4; 14)), 12 nM; in test [4] (single agent, U266 t(11; 14)), 1.5 nM; in test [6] (single agent, L-363 t(20; 22)), 47 nM; in test [8] (single agent, KMS-28-BM t(4; 14)) it was 19 nM. The “combinatorial effect by Loewe volumes” value is reported as “S (key: Antagonism; Synergy; Additive; X: Not Tested)” in test [2]; “S (key: Antagonism; Synergy; Additive; X: Not Tested)” in test [4]; “A (Additive)” in test [14]; “A (key: Antagonism; Synergy; Additive; X: Not Tested)” in test [6]; “A (key: Antagonism; Synergy; Additive; X: Not Tested)” in test [8].
Consider `Nc1cccc2c1CN(C1CCC(=O)NC1=O)C2=O` (stereo not shown) [Lenalidomide, lenalidomide], for which the “Best CI” value in [9] is given as 0.35. Moreover, the “Bliss Volume” value in test [9] is given as 1.86; in test [10] it was 2.67. In addition, the entries for the “HSA Volume” value in [9] and in test [10] were 2.74 and 4.46, respectively. In addition, the “Loewe Volume” value was 2.87 in test [9] and 4.35 in test [10]. Further, the “Synergy Score” value in [9] stood at 3.68; in [10] it was 4.01. Moreover, the IC50 in [9] is 872 nM; in [1] (Homo sapiens, MM1.S, 96 h), 305 nM; in test [2] (Homo sapiens, LP-1, 96 h) it was 973 nM; in [4] (Homo sapiens, U-266, 96 h), above 10000 nM; in [6] (Homo sapiens, L-363, 96 h), 379 nM; in test [8] (KMS-28BM, 96 h) it was above 10000 nM. Further, in test [10], the IC50 turned out to be 902 nM. Besides, the “combinatorial effect by Loewe volumes” value in test [2] (setting [20]), in test [4] (setting [21]), in test [14], in [6] (setting [22]) and in [8] (setting [23]) was “S (Synergy)” throughout.
Take `Cc1[nH]c2ccccc2c1CCNCc1ccc(/C=C/C(=O)NO)cc1` [Panobinostat, panobinostat]: the IC50 in test [1] (Homo sapiens, MM1.S, 96 h) was 5.8 nM; in test [2] (Homo sapiens, LP-1, 96 h) it was 3 nM; in test [3], 1.34 nM; in [4] (Homo sapiens, U-266, 96 h) it was 5 nM; in test [6] (Homo sapiens, L-363, 96 h), 3 nM; in test [7] it was 1.26 nM. For the same compound, in test [8] (KMS-28BM, 96 h), the IC50 amounted to 2.5 nM. The “combinatorial effect by Loewe volumes” value in [2] (setting [20]) is reported as “S (Synergy)”; in test [4] (setting [21]), “S (Synergy)”; in test [14], “A (Additive)”; in test [15] it was “S (Synergy)”; in test [6] (setting [22]), “S (Synergy)”; in test [7] (second agent + tazemetostat, 7-day co-treatment, KMS-28-BM t(4;14)), “S (Synergy)”. The “combinatorial effect by Loewe volumes” value in [8] (setting [23]) and in test [16] was “S (Synergy)” in each case. Further, the Loewe volume in [5] stood at 2.24; in test [15] (7 day co-treatment, MOLP-8), 2.14; in test [7] (second agent + tazemetostat, 7 day co-treatment, KMS-28-BM) it was 5.19; in test [8] (second agent + tazemetostat, 7 day pretreatment + 4-day co-treatment, KMS-28-BM), 2.03.
Turning to `C[C@]12C=CC(=O)C=C1CC[C@@H]1[C@@H]2[C@@H](O)C[C@@]2(C)[C@H]1CC[C@]2(O)C(=O)CO` [Prednisolone, prednisolone], the IC50 was 158 nM in test [1] (Homo sapiens, MM1.S, 96 h); 36 nM in test [2] (Homo sapiens, LP-1, 96 h); above 10000 nM in test [4] (Homo sapiens, U-266, 96 h); 100 nM in test [6] (Homo sapiens, L-363, 96 h); 36 nM in test [8] (KMS-28BM, 96 h). Besides, the “combinatorial effect by Loewe volumes” value in test [2] (setting [20]) was “S (Synergy)”; in [4] (setting [21]) it was “A (Additive)”; in test [14] it was “S (Synergy)”; in test [6] (setting [22]), “A (Additive)”; in test [8] (setting [23]), “S (Synergy)”.
Consider `CCN(c1cc(-c2ccc(CN3CCOCC3)cc2)cc(C(=O)NCc2c(C)cc(C)[nH]c2=O)c1C)C1CCOCC1` [Tazemetostat, tazemetostat], for which the “IRF4 expression, single agent” value in [17] was “reduces TRF4 expression”.
Regarding `CC1(C)CCC(CN2CCN(c3ccc(C(=O)NS(=O)(=O)c4ccc(NCC5CCOCC5)c([N+](=O)[O-])c4)c(Oc4cnc5[nH]ccc5c4)c3)CC2)=C(c2ccc(Cl)cc2)C1` [Venetoclax, venetoclax], the IC50 in test [13] was 41 nM; in test [11] (Homo sapiens, Granta-519, read-out: Second agent IC50), 58 nM. Also, the “Best CI” value was 0.43 in [13] and 0.09 in test [11] (setting [18]). The “Bliss Volume” value in test [13] stood at 1.76; in [11] (setting [18]) it was 3.95. Besides, the “HSA Volume” value was 3.06 in test [13] and 7.17 in test [11] (setting [18]). Moreover, the “Loewe Volume” value is on record as 2.73 in test [13] and 6.72 in test [11] (setting [18]). For the same compound, the results for the “Synergy Score” value in test [13] and in test [11] (setting [18]) were 3.82 and 7.23, respectively. In addition, the “combinatorial effect by Loewe volumes” value in test [2] (setting [20]) was “S (Synergy)”; in test [14] it was “A (Additive)”; in test [15] it was “A (Additive)”; in test [8] (setting [23]), “S (Synergy)”; in [16], “S (Synergy)”.
